In patent US9278981B2, “Compounds and compositions for inhibiting the activity of ABL1, ABL2 and BCR-ABL1” (Novartis AG, priority 2012, dated 2016):

Legend:
ABL1 (64-515) [1] = target: T1, ABL1 (64-515) (Homo sapiens (Human), UniProt P00519); test: Caliper ABL1 (64-515) assay (microfluidic mobility shift); assay type: biochemical
ABL1 (64-515) [2] = target: T1, ABL1 (64-515); test: Radio ABL1 (64-515) assay (radiometric filter-binding); assay type: biochemical

T1 sequence (P00519 64-515): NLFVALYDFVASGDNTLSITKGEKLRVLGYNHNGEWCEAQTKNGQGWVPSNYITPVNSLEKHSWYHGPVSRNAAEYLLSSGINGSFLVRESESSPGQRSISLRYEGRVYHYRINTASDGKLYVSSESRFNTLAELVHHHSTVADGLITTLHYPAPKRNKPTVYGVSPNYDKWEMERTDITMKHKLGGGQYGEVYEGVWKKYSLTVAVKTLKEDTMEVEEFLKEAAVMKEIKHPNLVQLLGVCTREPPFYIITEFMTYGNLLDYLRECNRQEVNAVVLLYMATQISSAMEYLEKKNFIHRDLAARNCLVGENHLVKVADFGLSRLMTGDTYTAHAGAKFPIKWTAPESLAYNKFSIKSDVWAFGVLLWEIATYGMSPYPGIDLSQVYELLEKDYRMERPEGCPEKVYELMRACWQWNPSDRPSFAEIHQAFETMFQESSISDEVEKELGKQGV

O=C(Nc1ccc(OC(F)(F)F)cc1)c1cnc(N2CC[C@@H](O)C2)c(-c2cc(F)cc(F)c2)c1 [Example 61, (R)-5-(3,5-Difluorophenyl)-6-(3-hydroxypyrrolidin-1-yl)-N-(4-(trifluoromethoxy)phenyl)nicotinamide]
IC50 (ABL1 (64-515) [1]): 0.5 nM | IC50 (ABL1 (64-515) [2]): 4 nM

O=C(Nc1ccc(SC(F)(F)F)cc1)c1cnc(N2CC[C@H](CO)C2)c(-c2cncnc2)c1 [Example 189, (S)-6-(3-(Hydroxymethyl)pyrrolidin-1-yl)-5-(pyrimidin-5-yl)-N-(4-((trifluoromethyl)thio)phenyl)nicotinamide]
IC50 (ABL1 (64-515) [1]): 1 nM | IC50 (ABL1 (64-515) [2]): 3 nM

O=C(Nc1ccc(OC(F)(F)F)cc1)c1cnc(N2CC[C@@H](O)C2)c(-c2cnc(Cl)c(F)c2)c1 [Example 53, (R)-6′-Chloro-5′-fluoro-2-(3-hydroxypyrrolidin-1-yl)-N-(4-(trifluoromethoxy)phenyl)-[3,3′-bipyridine]-5-carboxamide]
IC50 (ABL1 (64-515) [1]): 0.4 nM | IC50 (ABL1 (64-515) [2]): < 3 nM

O=C(Nc1ccc(OC(F)(F)F)cc1)c1cnc(N2CCCC2)c(-c2ccc(CO)nc2)c1 [Example 69, 6′-(Hydroxymethyl)-2-(pyrrolidin-1-yl)-N-(4-(trifluoromethoxy)phenyl)-[3,3′-bipyridine]-5-carboxamide]
IC50 (ABL1 (64-515) [1]): 0.5 nM | IC50 (ABL1 (64-515) [2]): < 3 nM

CC1(O)CN(c2ncc(C(=O)Nc3ccc(OC(F)(F)F)cc3)cc2-c2cncc(F)c2)C1 [Example 132, 5′-Fluoro-2-(3-hydroxy-3-methylazetidin-1-yl)-N-(4-(trifluoromethoxy)phenyl)-[3,3′-bipyridine]-5-carboxamide]
IC50 (ABL1 (64-515) [1]): 1.5 nM | IC50 (ABL1 (64-515) [2]): < 3 nM

O=C(Nc1ccc(S(=O)(=O)C(F)(F)F)cc1)c1cnc(N2CC[C@@H](O)C2)c(-c2cncnc2)c1 [Example 214, (R)-6-(3-Hydroxypyrrolidin-1-yl)-5-(pyrimidin-5-yl)-N-(4-((trifluoromethyl)sulfonyl)phenyl)nicotinamide]
IC50 (ABL1 (64-515) [1]): 8.1 nM | IC50 (ABL1 (64-515) [2]): 8 nM

O=C(Nc1ccc(OC(F)(F)F)c(F)c1)c1cnc(N2CC[C@H](CO)C2)c(-c2cncc(F)c2)c1 [Example 202, (S)-5′-Fluoro-N-(3-fluoro-4-(trifluoromethoxy)phenyl)-2-(3-(hydroxymethyl)pyrrolidin-1-yl)-[3,3′-bipyridine]-5-carboxamide]
IC50 (ABL1 (64-515) [1]): 0.7 nM | IC50 (ABL1 (64-515) [2]): 3.4 nM

N#Cc1cncc(-c2cc(C(=O)Nc3ccc(OC(F)(F)F)c(F)c3)cnc2N2CC[C@H](CO)C2)c1 [Example 203, (S)-5′-Cyano-N-(3-fluoro-4-(trifluoromethoxy)phenyl)-2-(3-(hydroxymethyl)pyrrolidin-1-yl)-[3,3′-bipyridine]-5-carboxamide]
IC50 (ABL1 (64-515) [1]): 0.9 nM | IC50 (ABL1 (64-515) [2]): 1 nM

N#Cc1ccncc1-c1cc(C(=O)Nc2ccc(OC(F)(F)F)cc2)cnc1N1CC[C@@H](O)C1 [Example 240, (R)-4′-Cyano-2-(3-hydroxypyrrolidin-1-yl)-N-(4-(trifluoromethoxy)phenyl)-[3,3′-bipyridine]-5-carboxamide]
IC50 (ABL1 (64-515) [1]): 1.4 nM | IC50 (ABL1 (64-515) [2]): 2 nM

O=C(Nc1ccc(OC(F)(F)Cl)cc1)c1cnc(N(CCO)CCO)c(-c2cncnc2)c1 [Example 261]
IC50 (ABL1 (64-515) [1]): 3.9 nM | IC50 (ABL1 (64-515) [2]): 1.8 nM

CCN(CCO)c1ncc(C(=O)Nc2ccc(OC(F)(F)F)cc2)cc1-c1cncc(C#N)c1 [Example 158, 5′-Cyano-2-(ethyl(2-hydroxyethyl)amino)-N-(4-(trifluoromethoxy)phenyl)-[3,3′-bipyridine]-5-carboxamide]
IC50 (ABL1 (64-515) [1]): 2.8 nM | IC50 (ABL1 (64-515) [2]): 37 nM

O=C(Nc1ccc(OC(F)(F)Cl)cc1)c1ccc(N2CC[C@@H](O)C2)c(-c2cncnc2)c1 [Example 243, (R)—N-(4-(Chlorodifluoromethoxy)phenyl)-4-(3-hydroxypyrrolidin-1-yl)-3-(pyrimidin-5-yl)benzamide]
IC50 (ABL1 (64-515) [1]): 0.5 nM | IC50 (ABL1 (64-515) [2]): 1.3 nM

O=C(Nc1ccc(OC(F)(F)Cl)cc1)c1cnc(N2CC[C@@H](O)C2)c(-c2cnccc2F)c1 [Example 280, (R)—N-(4-(Chlorodifluoromethoxy)phenyl)-4′-fluoro-2-(3-hydroxypyrrolidin-1-yl)-[3,3′-bipyridine]-5-carboxamide]
IC50 (ABL1 (64-515) [1]): 0.3 nM | IC50 (ABL1 (64-515) [2]): 2 nM

O=C(Nc1ccc(OC(F)(F)F)cc1)c1cnc(N2CCNC3(CC3)C2)c(-c2cncnc2)c1 [Example 229]
IC50 (ABL1 (64-515) [1]): 2.4 nM | IC50 (ABL1 (64-515) [2]): 1 nM

Nc1ncc(-c2cc(C(=O)Nc3ccc(OC(F)(F)F)cc3)cnc2N2CC[C@@H](O)C2)cn1 [Example 38, (R)-5-(2-Aminopyrimidin-5-yl)-6-(3-hydroxypyrrolidin-1-yl)-N-(4-(trifluoromethoxy)phenyl)nicotinamide]
IC50 (ABL1 (64-515) [1]): 1.4 nM | IC50 (ABL1 (64-515) [2]): 4 nM

CN(CCO)c1ncc(C(=O)Nc2ccc(OC(F)(F)Cl)cc2)cc1-c1cncnc1 [Example 179, N-(4-(Chlorodifluoromethoxy)phenyl)-6-((2-hydroxyethyl)(methyl)amino)-5-(pyrimidin-5-yl)nicotinamide]
IC50 (ABL1 (64-515) [1]): 0.8 nM | IC50 (ABL1 (64-515) [2]): 2 nM

N#Cc1cncc(-c2cc(C(=O)Nc3ccc(C(F)(F)C(F)(F)F)cc3)cnc2N2CC[C@@H](O)C2)c1 [Example 210, (R)-5′-Cyano-2-(3-hydroxypyrrolidin-1-yl)-N-(4-(perfluoroethyl)phenyl)-[3,3′-bipyridine]-5-carboxamide]
IC50 (ABL1 (64-515) [1]): 0.8 nM | IC50 (ABL1 (64-515) [2]): 4 nM

O=C(Nc1ccc(OC(F)(F)F)cc1)c1cnc(N2CC(CO)C2)c(-c2cncc(F)c2)c1 [Example 139, 5′-Fluoro-2-(3-(hydroxymethyl)azetidin-1-yl)-N-(4-(trifluoromethoxy)phenyl)-[3,3′-bipyridine]-5-carboxamide]
IC50 (ABL1 (64-515) [1]): 0.6 nM | IC50 (ABL1 (64-515) [2]): 5 nM

N[C@@H]1[C@H]2CN(c3ncc(C(=O)Nc4ccc(OC(F)(F)Cl)cc4)cc3-c3cncnc3)C[C@@H]12 [Example 253]
IC50 (ABL1 (64-515) [1]): 0.5 nM | IC50 (ABL1 (64-515) [2]): 2 nM

Cc1ccc(-c2cc(C(=O)Nc3ccc(OC(F)(F)F)cc3)cnc2N2CC(CO)C2)cn1 [Example 138, 2-(3-(Hydroxymethyl)azetidin-1-yl)-6′-methyl-N-(4-(trifluoromethoxy)phenyl)-[3,3′-bipyridine]-5-carboxamide]
IC50 (ABL1 (64-515) [1]): 0.8 nM | IC50 (ABL1 (64-515) [2]): 7 nM

N#Cc1ccncc1-c1cc(C(=O)Nc2ccc(OC(F)(F)Cl)cc2)cnc1N1C[C@H](O)[C@@H](O)C1 [Example 290, N-(4-(Chlorodifluoromethoxy)phenyl)-4′-cyano-2-((3S,4S)-3,4-dihydroxypyrrolidin-1-yl)-[3,3′-bipyridine]-5-carboxamide]
IC50 (ABL1 (64-515) [1]): 0.8 nM | IC50 (ABL1 (64-515) [2]): 2 nM

CCN(CCO)c1ncc(C(=O)Nc2ccc(SC(F)(F)F)cc2)cc1-c1cncc(C#N)c1 [Example 197, 5′-Cyano-2-(ethyl(2-hydroxyethyl)amino)-N-(4-((trifluoromethyl)thio)phenyl)-[3,3′-bipyridine]-5-carboxamide]
IC50 (ABL1 (64-515) [1]): 1.8 nM | IC50 (ABL1 (64-515) [2]): 16 nM

Nc1ncc(-c2cc(C(=O)Nc3ccc(OC(F)(F)F)cc3)cnc2N2CCCC2)cn1 [Example 68, 5-(2-Aminopyrimidin-5-yl)-6-(pyrrolidin-1-yl)-N-(4-(trifluoromethoxy)phenyl)nicotinamide]
IC50 (ABL1 (64-515) [1]): 0.9 nM | IC50 (ABL1 (64-515) [2]): < 3 nM

O=C(Nc1ccc(OC(F)(F)F)cc1)c1cnc(N2C[C@H](O)[C@@H](O)C2)c(-c2cccnc2)c1 [Example 70, 2-((3S,4S)-3,4-Dihydroxypyrrolidin-1-yl)-N-(4-(trifluoromethoxy)phenyl)-[3,3′-bipyridine]-5-carboxamide]
IC50 (ABL1 (64-515) [1]): 0.4 nM | IC50 (ABL1 (64-515) [2]): < 3 nM

Cc1ncc(-c2cc(C(=O)Nc3ccc(OC(F)(F)Cl)cc3)ccc2N2C[C@H](O)[C@@H](O)C2)cn1 [Example 246, N-(4-(Chlorodifluoromethoxy)phenyl)-4-((3S,4S)-3,4-dihydroxypyrrolidin-1-yl)-3-(2-methylpyrimidin-5-yl)benzamide]
IC50 (ABL1 (64-515) [1]): 2.2 nM | IC50 (ABL1 (64-515) [2]): 1 nM

Cc1ccc(-c2cc(C(=O)Nc3ccc(OC(F)(F)C(F)F)cc3)cnc2N2CC[C@@H](O)C2)cn1 [Example 213, (R)-2-(3-Hydroxypyrrolidin-1-yl)-6′-methyl-N-(4-(1,1,22-tetrafluoroethoxy)phenyl)-[3,3′-bipyridine]-5-carboxamide]
IC50 (ABL1 (64-515) [1]): 16 nM | IC50 (ABL1 (64-515) [2]): 7 nM

O=C(Nc1ccc(OC(F)(F)F)cc1)c1cnc(N2C3COCC2COC3)c(-c2cncnc2)c1 [Example 150, 6-(3,7-Dioxa-9-azabicyclo[3.3.1]nonan-9-yl)-5-(pyrimidin-5-yl)-N-(4-(trifluoromethoxy)phenyl)nicotinamide]
IC50 (ABL1 (64-515) [1]): 6.5 nM | IC50 (ABL1 (64-515) [2]): 4 nM

Cc1ncc(-c2cc(C(=O)Nc3ccc(OC(F)(F)F)cc3)cnc2N2CC(C)(O)C2)cc1F [Example 133, 5′-Fluoro-2-(3-hydroxy-3-methylazetidin-1-yl)-6′-methyl-N-(4-(trifluoromethoxy)phenyl)-[3,3′-bipyridine]-5-carboxamide]
IC50 (ABL1 (64-515) [1]): 1.4 nM | IC50 (ABL1 (64-515) [2]): < 3 nM

O=C(Nc1ccc(OC(F)(F)Cl)cc1)c1cnc(N2CC[C@@H](O)C2)c(-c2cc(F)nc(F)c2)c1 [Example 273]
IC50 (ABL1 (64-515) [1]): 1.2 nM | IC50 (ABL1 (64-515) [2]): 2 nM

O=C(Nc1ccc(OC(F)(F)F)cc1)c1cnc(N2CC[C@@H](O)C2)c(-c2cc(F)cnc2F)c1 [Example 49, (R)-2′,5′-Difluoro-2-(3-hydroxypyrrolidin-1-yl)-N-(4-(trifluoromethoxy)phenyl)-[3,3′-bipyridine]-5-carboxamide]
IC50 (ABL1 (64-515) [1]): 3.5 nM | IC50 (ABL1 (64-515) [2]): 5 nM

N[C@]1(C(F)(F)F)CCN(c2ncc(C(=O)Nc3ccc(OC(F)(F)F)cc3)cc2-c2cncnc2)C1 [Example 223, (R)-6-(3-Amino-3-(trifluoromethyl)pyrrolidin-1-yl)-5-(pyrimidin-5-yl)-N-(4-(trifluoromethoxy)phenyl)nicotinamide]
IC50 (ABL1 (64-515) [1]): 10 nM | IC50 (ABL1 (64-515) [2]): 0.2 nM

CCN(CCO)c1ncc(C(=O)Nc2ccc(SC(F)(F)F)cc2)cc1-c1cncc(F)c1 [Example 196, 2-(Ethyl(2-hydroxyethyl)amino)-5′-fluoro-N-(4-((trifluoromethyl)thio)phenyl)-[3,3′-bipyridine]-5-carboxamide]
IC50 (ABL1 (64-515) [1]): 0.7 nM | IC50 (ABL1 (64-515) [2]): 5.1 nM

NC[C@@H]1CCN(c2ncc(C(=O)Nc3ccc(OC(F)(F)Cl)cc3)cc2-c2cncnc2)C1 [Example 177, (S)-6-(3-(Aminomethyl)pyrrolidin-1-yl)-N-(4-(chlorodifluoromethoxy)phenyl)-5-(pyrimidin-5-yl)nicotinamide]
IC50 (ABL1 (64-515) [1]): 0.3 nM | IC50 (ABL1 (64-515) [2]): 1 nM
